# Measured values reported in patent publication EP0514540B1, “PYRROLO 2,3-d]PYRIMIDINE DERIVATIVE, PROCESS FOR PREPARING THE SAME, AND PHARMACEUTICAL PREPARATION COMPRISING THE DERIVATIVE AS ACTIVE INGREDIENT” (TEIJIN LIMITED, priority 1989, dated 1991).
# Key:
# hypoxemia model animals [1] = test: Effect on partial pressure of gases in arterial blood, injection system, Method B (acetic acid-induced hypoxemia); format: in vivo, Male Wister strain rats; settings: 2.0% acetic acid intratracheal 0.6 ml/kg, PaO2 60-70 mmHg, intravenous continuous 0.1 mg/kg/min, after minus before administration
# Method: (§1) Example 59: Effect on Partial Pressure Value of Gases in Arterial Blood (Injection system)
# Male Wister strain rats (body about 300 g) were anesthetized with halothane inhalant, and then 2.0% acetic acid was intratrachealy injected at 0.6 ml/kg to induce a respiratory insufficiency. The animals were intra-peritoneally anesthetized with urethane-α-chloralose, and a cannula was inserted into the femoral artery. After the hypoxemic state (PaO2: 60-70 mmHg) was observed a compound in accordance with the present invention (test substance) was intravenously injected into these hypoxemia model animals by a continuous manner (0.1 mg/kg/min), and then a partial pressure value of gases (PaO2, PaCO2) in arterial blood were immediately determined.
# hypoxemia state = test: Effect on partial pressure of gases in arterial blood, oral administration system (acetic acid-induced hypoxemia); format: in vivo, Male Wistar strain rats; settings: orally administered; 2.0% acetic acid intratracheal 0.8 ml/kg; 60 min. after the administration
# Method: Example 60: Effect on Partial Pressure Value of Gases in Arterial Blood (Oral Administration System)
# Male Wistar strain rats (body weight about 250 g) fasted overnight were anesthetized with halothane inhalant, and then a cannula was inserted into the femoral artery. After the animals recovered from the anesthesia, they were again anesthetized with halothane inhalant, and then 2.0% acetic acid was intratrachealy injected at 0.8 ml/kg to induce a hypoxemia state. After the hypoxemic state was observed over about 60 min., a compound in accordance with the present invention (test substance) was orally administered to the animals. On 60 min. after the administration, the partial pressure value of gases (PaO2, PaCO2) in arterial blood were determined.
# hypoxemia model animals [2] = test: Effect on partial pressure of gases in arterial blood, injection system, Method A (carbon powder-induced hypoxemia); format: in vivo, Male Wister strain rats; settings: carbon powder intratracheal, PaO2 50-60 mmHg, intravenous continuous 0.1 mg/kg/min., 10 min, after minus before administration
# Method: as §1
# Male Wister strain rats (body weight about 300 g) were anesthetized intra-peritoneally with urethane, and a cannula was inserted into the respiratory tract and the femoral artery, respectively. A suspension (30-100 µm, 10 mg/ml) of carbon powder in a corn oil was intratrachealy injected to induce a hypoxemia state (PaO2; 50-60 mmHg). A compound in accordance with the present invention was intravenously injected into these hypoxemia model animals by a continuous manner (0.1 mg/kg/min., 10 min), and then a partial pressure value of gases (PaO2, PaCO2) in arterial blood were immediately determined.
SMILES,Activity for Decreasing PaCO2 ΔPaCO2 (hypoxemia model animals [1]),Activity for Increasing PaO2 ΔPaO2 (hypoxemia model animals [1]),Activity for Decreasing PaCO2 ΔPaCO2 (hypoxemia state),Activity for Increasing PaO2 ΔPaO2 (hypoxemia state),Activity for Decreasing PaCO2 ΔPaCO2 (hypoxemia model animals [2]),Activity for Increasing PaO2 ΔPaO2 (hypoxemia model animals [2])
"C=CCNc1nc(NC(C)c2ccccc2)c2ccn(C)c2n1 (racemic) [Compound 156, (±)-2-allylamino-7-methyl-4-(1-phenylethyl-amino)-7H-pyrrolo[2,3-d]pyrimidine]",-9.1 mmHg,+19.7 mmHg,+ (+: -3 - -6 mmHg),+ +,,
C=CCNc1nc(N2CCC(OC(C)=O)CC2)c2ccn(C)c2n1 [Compound 119],,,,,-2.6 mmHg,+7.1 mmHg
C=CCNc1nc(N2CCOCC2)c2ccn(C)c2n1 [Compound 124],-4.0 mmHg,+5.7 mmHg,+ (+: -3 - -6 mmHg),+ (ΔPaO2 +: +3 - +6 mmHg),,
C=CCNc1nc(N2CCN(C(c3ccc(F)cc3)c3ccc(F)cc3)CC2)c2ccn(C)c2n1 [Compound 133],,,,,-0.6 mmHg,+6.9 mmHg
C=CCNc1nc(N2CCN(C(c3ccc(F)cc3)c3ccc(F)cc3)CC2)c2ccn(CC=C)c2n1 [Compound 143],,,,,+1.1 mmHg,+5.0 mmHg
C=CCNc1nc(NC2CCCCC2)c2ccn(C)c2n1 [Compound 150],-18.6 mmHg,+18.4 mmHg,,,,
C=CCNc1nc(NC2CCCc3ccccc32)c2ccn(C)c2n1 (centres unmarked) [Compound 162],-17.2 mmHg,+18.1 mmHg,,,,
C=CCNc1nc(NCCc2ccccc2)c2ccn(C)c2n1 [Compound 164],-19.2 mmHg,+15.4 mmHg,,,,
C=CCNc1nc(N(C)C)c2ccn(C)c2n1 [Compound 165],+1.1 mmHg,+7.9 mmHg,± (ΔPaCO2 ±: 0 - -3 mmHg),+ (ΔPaO2 +: +3 - +6 mmHg),,
C=CCNc1nc(N(C)CCc2ccccc2)c2ccn(C)c2n1 [Compound 167],-6.6 mmHg,+11.3 mmHg,,,,
